Test results as given in article PMC6416464 (Drug Metabolism Letters, 2018).
Where two headings read alike, the source gives them in different places.

Key:
[1] = Metabolic stability, incubation with human liver cytosol; type: in vitro ADME; details: 1 µM test compound, 1 mg/mL protein
CYP3A4 [2] = molecular target: T1, CYP3A4 (Homo sapiens, UniProt P08684); details: microsomes
rCYP3A4 = rCYP3A4 (Homo sapiens, UniProt P08684)
CYP3A4 [3] = molecular target: T1, CYP3A4; experiment: in vitro; details: microsomes, pH 7.4, % Inhibition of Control Activity CYP3A4 (substrate, testosterone)
CYP3A4 [4] = molecular target: T1, CYP3A4; experiment: in vitro; details: microsomes, pH 7.4
[5] = Metabolic stability, incubation with human liver microsomes; details: 1 µM test compound, 0.5 mg/mL protein
CYP2C8 = molecular target: T2, CYP2C8 (Homo sapiens, UniProt P10632); experiment: CYP inhibition in human liver microsomes, CYP2C8; details: for inhibition at 2 µM / inhibition at 10 µM: human, human liver microsomes, pH 7.4, probe paclitaxel; for % Inhibition of Control Activity CYP2C8: NI: No Inhibitin
T2 sequence (P10632 1-490): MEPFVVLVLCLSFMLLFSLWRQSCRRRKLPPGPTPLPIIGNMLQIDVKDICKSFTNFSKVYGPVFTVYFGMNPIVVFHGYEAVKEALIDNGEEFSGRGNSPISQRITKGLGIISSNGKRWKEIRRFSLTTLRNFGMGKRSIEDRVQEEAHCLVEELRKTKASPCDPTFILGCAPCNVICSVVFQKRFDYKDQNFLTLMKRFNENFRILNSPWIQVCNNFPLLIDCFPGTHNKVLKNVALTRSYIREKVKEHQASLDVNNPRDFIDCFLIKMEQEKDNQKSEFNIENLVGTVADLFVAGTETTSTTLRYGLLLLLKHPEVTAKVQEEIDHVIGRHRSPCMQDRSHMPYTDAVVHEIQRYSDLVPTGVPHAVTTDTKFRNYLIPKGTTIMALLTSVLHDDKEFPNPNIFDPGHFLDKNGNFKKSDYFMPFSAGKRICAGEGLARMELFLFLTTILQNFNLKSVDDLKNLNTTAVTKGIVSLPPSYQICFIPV

CYP2C9 = CYP2C9 (Homo sapiens, UniProt P11712); experiment: CYP inhibition in human liver microsomes, CYP2C9; details: HLM; for % Inhibition of Control Activity CYP2C9: NI: No Inhibitin
CYP2D6 = CYP2D6 (Homo sapiens, UniProt P10635); experiment: CYP inhibition in human liver microsomes, CYP2D6; details: HLM, NI: No Inhibitin
rCYP1A2 = molecular target: T3, rCYP1A2 (Homo sapiens, UniProt P05177); experiment: Metabolic stability / reaction phenotyping with recombinant human CYP1A2; details: for % Metabolized at 30 min Incubation with Human Liver Fractions/Enzymes rCYP1A2: 1 µM test compound, 100 pmol/mL
T3 sequence (P05177 1-516): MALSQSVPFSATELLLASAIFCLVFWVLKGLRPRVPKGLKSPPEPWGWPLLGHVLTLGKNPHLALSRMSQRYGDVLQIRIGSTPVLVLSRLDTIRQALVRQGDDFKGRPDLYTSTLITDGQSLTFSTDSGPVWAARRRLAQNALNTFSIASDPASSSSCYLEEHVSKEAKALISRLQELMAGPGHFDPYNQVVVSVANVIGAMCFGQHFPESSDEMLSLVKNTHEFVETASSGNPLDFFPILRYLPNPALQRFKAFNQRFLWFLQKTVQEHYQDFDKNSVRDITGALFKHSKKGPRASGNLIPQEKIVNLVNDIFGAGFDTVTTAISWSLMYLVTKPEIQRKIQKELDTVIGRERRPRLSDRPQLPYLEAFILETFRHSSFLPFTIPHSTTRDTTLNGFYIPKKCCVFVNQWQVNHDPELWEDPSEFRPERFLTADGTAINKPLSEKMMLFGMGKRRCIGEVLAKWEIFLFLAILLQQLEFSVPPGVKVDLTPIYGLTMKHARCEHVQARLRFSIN

rCYP2C8 = molecular target: T4, rCYP2C8 (Homo sapiens, UniProt P10632); experiment: Metabolic stability / reaction phenotyping with recombinant human CYP2C8; details: for % Metabolized at 30 min Incubation with Human Liver Fractions/Enzymes rCYP2C8: 1 µM test compound, 100 pmol/mL
T4 sequence (P10632 1-490): T2 sequence (P10632 1-490)

rCYP2C9 = rCYP2C9 (Homo sapiens, UniProt P11712); experiment: Metabolic stability / reaction phenotyping with recombinant human CYP2C9; details: for % Metabolized at 30 min Incubation with Human Liver Fractions/Enzymes rCYP2C9: 1 µM test compound, 100 pmol/mL
rCYP2D6 = rCYP2D6 (Homo sapiens, UniProt P10635); experiment: Metabolic stability / reaction phenotyping with recombinant human CYP2D6; details: for % Metabolized at 30 min Incubation with Human Liver Fractions/Enzymes rCYP2D6: 1 µM test compound, 100 pmol/mL
rCYP2C19 = rCYP2C19 (Homo sapiens, UniProt P33261); experiment: Metabolic stability / reaction phenotyping with recombinant human CYP2C19; details: for % Metabolized at 30 min Incubation with Human Liver Fractions/Enzymes rCYP2C19: 1 µM test compound, 100 pmol/mL
[6] = cited from earlier work
CYP1A2 = molecular target: T5, CYP1A2 (Homo sapiens, UniProt P05177); experiment: CYP inhibition in human liver microsomes, CYP1A2; details: HLM; for % Inhibition of Control Activity CYP1A2: NI: No Inhibitin
T5 sequence (P05177 1-516): T3 sequence (P05177 1-516)

CYP2C19 = CYP2C19 (Homo sapiens, UniProt P33261); experiment: CYP inhibition in human liver microsomes, CYP2C19; details: HLM; for % Inhibition of Control Activity CYP2C19: NI: No Inhibitin
[7] = with transport inhibitors such as verapamil, quinidine and ivermectin; cited from earlier work
[8] = human, recombinant enzyme, pH 7.4
[9] = human, recombinant human CYP1A2, 1 µM, pH 7.4
[10] = human, recombinant human CYP2C8, 1 µM, pH 7.4
[11] = human, recombinant human CYP2D6, 1 µM, pH 7.4
[12] = human, recombinant human CYP2C19, 1 µM, pH 7.4

rCYP2D6, sequence (P10635 whole entry): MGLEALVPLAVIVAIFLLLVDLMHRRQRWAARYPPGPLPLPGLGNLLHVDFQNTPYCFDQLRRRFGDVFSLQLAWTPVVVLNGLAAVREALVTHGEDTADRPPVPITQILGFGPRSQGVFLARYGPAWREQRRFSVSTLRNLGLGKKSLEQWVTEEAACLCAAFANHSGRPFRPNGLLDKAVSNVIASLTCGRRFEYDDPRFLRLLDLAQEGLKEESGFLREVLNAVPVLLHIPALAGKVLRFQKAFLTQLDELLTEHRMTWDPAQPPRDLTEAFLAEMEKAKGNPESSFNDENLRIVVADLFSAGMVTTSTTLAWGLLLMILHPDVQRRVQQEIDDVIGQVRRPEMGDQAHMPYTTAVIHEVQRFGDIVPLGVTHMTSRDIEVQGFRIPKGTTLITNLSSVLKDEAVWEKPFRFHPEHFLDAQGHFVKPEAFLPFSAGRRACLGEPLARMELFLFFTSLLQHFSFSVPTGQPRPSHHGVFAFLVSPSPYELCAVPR
CYP2D6, sequence (P10635 whole entry): as above
CYP2C9, sequence (P11712 whole entry): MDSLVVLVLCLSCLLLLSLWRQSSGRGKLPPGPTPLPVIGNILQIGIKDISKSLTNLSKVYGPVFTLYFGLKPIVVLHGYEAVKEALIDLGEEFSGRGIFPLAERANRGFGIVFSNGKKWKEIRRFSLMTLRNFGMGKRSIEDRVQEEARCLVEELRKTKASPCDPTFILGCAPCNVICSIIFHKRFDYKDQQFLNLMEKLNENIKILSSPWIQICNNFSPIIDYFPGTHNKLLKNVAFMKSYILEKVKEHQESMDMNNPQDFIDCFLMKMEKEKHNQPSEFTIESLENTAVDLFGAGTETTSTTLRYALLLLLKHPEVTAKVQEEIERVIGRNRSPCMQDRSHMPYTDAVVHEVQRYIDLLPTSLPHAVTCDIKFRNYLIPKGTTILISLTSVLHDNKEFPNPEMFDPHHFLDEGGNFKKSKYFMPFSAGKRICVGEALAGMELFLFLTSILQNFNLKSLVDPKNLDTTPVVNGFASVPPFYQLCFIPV
rCYP2C9, sequence (P11712 whole entry): as above
T1 sequence (P08684 2-503): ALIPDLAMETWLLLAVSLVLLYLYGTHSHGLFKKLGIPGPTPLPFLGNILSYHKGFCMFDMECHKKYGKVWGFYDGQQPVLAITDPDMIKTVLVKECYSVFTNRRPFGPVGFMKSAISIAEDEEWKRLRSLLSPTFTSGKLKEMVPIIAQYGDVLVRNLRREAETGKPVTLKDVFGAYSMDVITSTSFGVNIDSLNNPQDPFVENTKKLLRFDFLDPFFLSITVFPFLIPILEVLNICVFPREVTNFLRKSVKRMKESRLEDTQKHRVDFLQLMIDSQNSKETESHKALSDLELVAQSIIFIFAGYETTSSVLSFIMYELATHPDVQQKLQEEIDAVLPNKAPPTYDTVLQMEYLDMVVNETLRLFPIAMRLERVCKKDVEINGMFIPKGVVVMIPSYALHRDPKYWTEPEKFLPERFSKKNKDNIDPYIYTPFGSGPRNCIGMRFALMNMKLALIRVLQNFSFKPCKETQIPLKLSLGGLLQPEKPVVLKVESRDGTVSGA
rCYP3A4, sequence (P08684 whole entry): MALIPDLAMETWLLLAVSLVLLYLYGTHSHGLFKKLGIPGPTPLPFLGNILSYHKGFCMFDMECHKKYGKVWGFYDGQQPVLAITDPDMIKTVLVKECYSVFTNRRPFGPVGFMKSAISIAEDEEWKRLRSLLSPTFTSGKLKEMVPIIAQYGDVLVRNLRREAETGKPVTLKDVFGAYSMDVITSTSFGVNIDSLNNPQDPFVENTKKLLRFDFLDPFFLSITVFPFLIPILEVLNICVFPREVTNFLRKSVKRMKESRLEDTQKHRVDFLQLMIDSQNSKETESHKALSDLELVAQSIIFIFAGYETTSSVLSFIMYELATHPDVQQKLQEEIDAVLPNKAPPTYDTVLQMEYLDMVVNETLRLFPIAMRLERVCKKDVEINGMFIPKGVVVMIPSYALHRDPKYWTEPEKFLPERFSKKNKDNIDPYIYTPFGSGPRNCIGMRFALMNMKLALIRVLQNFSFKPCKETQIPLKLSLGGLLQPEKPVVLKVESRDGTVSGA
rCYP2C19, sequence (P33261 whole entry): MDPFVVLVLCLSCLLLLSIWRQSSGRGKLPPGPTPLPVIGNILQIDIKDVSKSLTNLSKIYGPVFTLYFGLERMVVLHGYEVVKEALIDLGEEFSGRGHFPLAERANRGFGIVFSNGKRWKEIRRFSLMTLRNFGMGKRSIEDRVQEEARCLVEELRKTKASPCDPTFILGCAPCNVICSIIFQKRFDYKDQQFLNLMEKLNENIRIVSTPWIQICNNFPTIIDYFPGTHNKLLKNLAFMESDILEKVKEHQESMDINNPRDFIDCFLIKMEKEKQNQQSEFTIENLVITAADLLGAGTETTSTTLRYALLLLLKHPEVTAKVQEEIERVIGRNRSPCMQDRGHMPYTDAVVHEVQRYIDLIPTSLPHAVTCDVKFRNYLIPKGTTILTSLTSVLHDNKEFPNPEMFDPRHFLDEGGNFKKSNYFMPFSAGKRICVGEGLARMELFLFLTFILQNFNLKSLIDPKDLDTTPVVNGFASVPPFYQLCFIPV
CYP2C19, sequence (P33261 whole entry): as above

O=C1Cc2cc(CCN3CCN(c4nsc5ccccc45)CC3)c(Cl)cc2N1 [Ziprasidone, ziprasidone, reference compound]
% Metabolized at 30 min Incubation with Human Liver Fractions/Enzymes Cytosol [1]: 10.86%
% Inhibition of Control Activity CYP3A4 (substrate, testosterone) (CYP3A4 [2]; human, 10 µM, pH 7.4): 33.06%
Predicted Microsomal Clint, CYP3A4 (rCYP3A4; human, pH 7.4): 53.530 µL/min/mg Protein
% Metabolized at 30 min Incubation with Human Liver Fractions/Enzymes rCYP3A4 (rCYP3A4; human, recombinant enzyme, 0.5 h, pH 7.4): 76.47%
% Contribution of CYP Enzymes (fmCYP) in Metabolism, CYP3A4 (rCYP3A4; [8]): 86.67%
rCYP Clint, CYP3A4 (rCYP3A4; [8]): 0.482 µL/min/pmol
inhibition at 2 µM (CYP3A4 [3]): 8.3%
inhibition at 2 µM (CYP3A4 [4]): 22%
inhibition at 10 µM (CYP3A4 [4]): 31.1%
% Metabolized at 30 min Incubation with Human Liver Fractions/Enzymes HLM [5]: 83.11%
inhibition at 2 µM (CYP2C8): < 0%
inhibition at 10 µM (CYP2C8): 12%
% Inhibition of Control Activity CYP2C9 (CYP2C9; inhibitor 10 µM, 10 µM): 1.44%
% Inhibition of Control Activity CYP2D6 (CYP2D6; inhibitor 10 µM, 10 µM): 11.70%
% Metabolized at 30 min Incubation with Human Liver Fractions/Enzymes rCYP1A2 (rCYP1A2): 5.98%
% Contribution of CYP Enzymes (fmCYP) in Metabolism, CYP1A2 (rCYP1A2; [9]): 1.73%
Predicted Microsomal Clint, CYP1A2 (rCYP1A2; [9]): 1.069 µL/min/mg Protein
rCYP Clint, CYP1A2 (rCYP1A2; [9]): 0.021 µL/min/pmol
% Metabolized at 30 min Incubation with Human Liver Fractions/Enzymes rCYP2C8 (rCYP2C8): 22.84%
% Contribution of CYP Enzymes (fmCYP) in Metabolism, CYP2C8 (rCYP2C8; [10]): 8.96%
Predicted Microsomal Clint, CYP2C8 (rCYP2C8; [10]): 5.532 µL/min/mg Protein
rCYP Clint, CYP2C8 (rCYP2C8; [10]): 0.086 µL/min/pmol
% Metabolized at 30 min Incubation with Human Liver Fractions/Enzymes rCYP2C9 (rCYP2C9): 0.00%
% Metabolized at 30 min Incubation with Human Liver Fractions/Enzymes rCYP2D6 (rCYP2D6): 3.73%
% Contribution of CYP Enzymes (fmCYP) in Metabolism, CYP2D6 (rCYP2D6; [11]): 0.21%
Predicted Microsomal Clint, CYP2D6 (rCYP2D6; [11]): 0.127 µL/min/mg Protein
rCYP Clint, CYP2D6 (rCYP2D6; [11]): 0.013 µL/min/pmol
% Metabolized at 30 min Incubation with Human Liver Fractions/Enzymes rCYP2C19 (rCYP2C19): 21.17%
% Contribution of CYP Enzymes (fmCYP) in Metabolism, CYP2C19 (rCYP2C19; [12]): 2.44%
Predicted Microsomal Clint, CYP2C19 (rCYP2C19; [12]): 1.507 µL/min/mg Protein
rCYP Clint, CYP2C19 (rCYP2C19; [12]): 0.079 µL/min/pmol

triclabendazole sulfoxide
% Metabolized at 30 min Incubation with Human Liver Fractions/Enzymes Cytosol [1]: 0.00%
% Inhibition of Control Activity CYP3A4 (substrate, testosterone) (CYP3A4 [2]; 2 µM): 0.18%
% Inhibition of Control Activity CYP3A4 (substrate, testosterone) (CYP3A4 [2]; 10 µM): 14.43%
Predicted Microsomal Clint, CYP3A4 (rCYP3A4): 1.626 µL/min/mg Protein
% Metabolized at 30 min Incubation with Human Liver Fractions/Enzymes rCYP3A4 (rCYP3A4; 1 µM test compound, 100 pmol/mL, 30 min): 4.30%
rCYP Clint, CYP3A4 (rCYP3A4; human, recombinant enzyme): 0.015 µL/min/pmol
% Contribution of CYP Enzymes (fmCYP) in Metabolism, CYP3A4 (rCYP3A4; recombinant enzyme): 2.35%
Cmax ([6]; human patients at therapeutic doses of triclabendazole): 38.6 µM
half-life ([6]; humans): 11 to 12 h
peak concentration ([6]; humans, standard dose of triclabendazole of 10 mg/kg): 38.6 µM
% Metabolized at 30 min Incubation with Human Liver Fractions/Enzymes HLM [5]: 18.08%
% Inhibition of Control Activity CYP1A2 (CYP1A2; inhibitor 2 µM): 39.42%
% Inhibition of Control Activity CYP1A2 (CYP1A2; inhibitor 10 µM): 69.42%
IC50 (CYP1A2; read-out: IC50 CYP 1A2): 4.19 µM
% Inhibition of Control Activity CYP2C8 (CYP2C8; inhibitor 2 µM, HLM): 11.20%
% Inhibition of Control Activity CYP2C8 (CYP2C8; inhibitor 10 µM, HLM): 53.67%
IC50 (CYP2C8; read-out: IC50 CYP 2C8, HLM): 8.95 µM
% Inhibition of Control Activity CYP2C9 (CYP2C9; inhibitor 2 µM): 49.60%
% Inhibition of Control Activity CYP2C9 (CYP2C9; inhibitor 10 µM): 86.62%
IC50 (CYP2C9; read-out: IC50 CYP 2C9): 1.95 µM
% Inhibition of Control Activity CYP2C19 (CYP2C19; inhibitor 2 µM): 84.33%
% Inhibition of Control Activity CYP2C19 (CYP2C19; inhibitor 10 µM): 88.87%
IC50 (CYP2C19; read-out: IC50 CYP 2C19): 0.22 µM
% Inhibition of Control Activity CYP2D6 (CYP2D6; inhibitor 2 µM): 1.63%
% Inhibition of Control Activity CYP2D6 (CYP2D6; inhibitor 10 µM): 3.13%
Predicted Microsomal Clint, CYP1A2 (rCYP1A2): 3.968 µL/min/mg Protein
% Metabolized at 30 min Incubation with Human Liver Fractions/Enzymes rCYP1A2 (rCYP1A2): 20.46%
rCYP Clint, CYP1A2 (rCYP1A2; human, recombinant enzyme): 0.076 µL/min/pmol
% Contribution of CYP Enzymes (fmCYP) in Metabolism, CYP1A2 (rCYP1A2; recombinant enzyme): 5.73%
% Metabolized at 30 min Incubation with Human Liver Fractions/Enzymes rCYP2C8 (rCYP2C8): 0.00%
Predicted Microsomal Clint, CYP2C9 (rCYP2C9): 57.057 µL/min/mg Protein
% Metabolized at 30 min Incubation with Human Liver Fractions/Enzymes rCYP2C9 (rCYP2C9): 83.19%
rCYP Clint, CYP2C9 (rCYP2C9; human, recombinant enzyme): 0.594 µL/min/pmol
% Contribution of CYP Enzymes (fmCYP) in Metabolism, CYP2C9 (rCYP2C9; recombinant enzyme): 82.43%
Predicted Microsomal Clint, CYP2D6 (rCYP2D6): 0.125 µL/min/mg Protein
% Metabolized at 30 min Incubation with Human Liver Fractions/Enzymes rCYP2D6 (rCYP2D6): 3.68%
rCYP Clint, CYP2D6 (rCYP2D6; human, recombinant enzyme): 0.012 µL/min/pmol
% Contribution of CYP Enzymes (fmCYP) in Metabolism, CYP2D6 (rCYP2D6; recombinant enzyme): 0.18%
Predicted Microsomal Clint, CYP2C19 (rCYP2C19): 6.442 µL/min/mg Protein
% Metabolized at 30 min Incubation with Human Liver Fractions/Enzymes rCYP2C19 (rCYP2C19): 63.84%
rCYP Clint, CYP2C19 (rCYP2C19; human, recombinant enzyme): 0.339 µL/min/pmol
% Contribution of CYP Enzymes (fmCYP) in Metabolism, CYP2C19 (rCYP2C19; recombinant enzyme): 9.31%

CCC[S+]([O-])c1ccc2[nH]c(NC(=O)OC)nc2c1 (stereo not drawn) [Albendazole sulfoxide, albendazole sulfoxide]
% Metabolized at 30 min Incubation with Human Liver Fractions/Enzymes Cytosol [1]: 0.20%
% Inhibition of Control Activity CYP3A4 (substrate, testosterone) (CYP3A4 [2]; human, 10 µM, pH 7.4): 4.82%
increase of AUC [7]: > 50%
inhibition at 2 µM (CYP3A4 [3]): 2.48%
inhibition at 2 µM (CYP3A4 [4]): < 0%
inhibition at 10 µM (CYP3A4 [4]): < 0%
% Metabolized at 30 min Incubation with Human Liver Fractions/Enzymes HLM [5]: 4.23%
% Inhibition of Control Activity CYP1A2 (CYP1A2; inhibitor 10 µM, 10 µM): 22.20%
inhibition at 2 µM (CYP2C8): < 0%
inhibition at 10 µM (CYP2C8): < 0%
% Inhibition of Control Activity CYP2C9 (CYP2C9; inhibitor 10 µM, 10 µM): 9.49%
